In brackets after ≈: the same amount, converted by molar mass.
Columns and labels:
Assay type in all cases: cell-based
Providentia sp. = test: MIC against clinically isolated aerobic Gram-negative strains; settings: 13 strains
[1] = tested on: Staphylococcus aureus SG511; test: MIC against standard strains (agar dilution); settings: standard strain Staphylococcus aureus SG511, 37° C., 18 to 20 hours, read-out: Minimum Inhibitory Concentration (MIC)
Enterococcus faecalis = test: MIC against clinically isolated aerobic Gram-positive strains; settings: 30 strains
Haemophilus influenzae = test: MIC against clinically isolated aerobic Gram-negative strains; settings: 24 strains
Streptococcus pneumoniae = test: MIC against clinically isolated aerobic Gram-positive strains; settings: 22 strains
[2] = tested on: Klebsiella aerogenes 1522E; test: MIC against standard strains (agar dilution); settings: standard strain Klebsiella aerogenes 1522E, 37° C., 18 to 20 hours, read-out: Minimum Inhibitory Concentration (MIC)
Streptococcus agalactiae = test: MIC against clinically isolated aerobic Gram-positive strains; settings: 15 strains
Moraxella catarrhalis = test: MIC against clinically isolated aerobic Gram-negative strains; settings: 24 strains
[3] = tested on: Methicillin-sensitive Staphylococcus aureus; test: MIC against clinically isolated aerobic Gram-positive strains; settings: 33 strains
Citrobacter freundii = test: MIC against clinically isolated aerobic Gram-negative strains; settings: 14 strains
Salmonella typhimurium = test: MIC against standard strains (agar dilution); settings: Salmonella enterica, standard strain Salmonella typhimurium, 37° C., 18 to 20 hours, read-out: Minimum Inhibitory Concentration (MIC)
Clostridium perfringens = test: microbe, parasite or virus in culture; settings: for MIC50 / MIC90: Clostridium perfringens; for MIC Range: clinically isolated anaerobic Clostridium perfringens, 13 strains
Enterobacter aerogenes = test: MIC against clinically isolated aerobic Gram-negative strains; settings: 14 strains; for MIC50 / MIC90: Klebsiella aerogenes
[4] = tested on: Pseudomonas aeruginosa 1771M; test: MIC against standard strains (agar dilution); settings: read-out: Minimum Inhibitory Concentration (MIC)
Klebsiella cxytoca 1082E = test: MIC against standard strains (agar dilution); settings: standard strain Klebsiella cxytoca 1082E, 37° C., 18 to 20 hours, read-out: Minimum Inhibitory Concentration (MIC)
Acinetobacter baumannii = test: MIC against clinically isolated aerobic Gram-negative strains; settings: 30 strains
Morganella morganii = test: as above; settings: 15 strains
[5] = tested on: Streptococcus faecium MD 8b; test: MIC against standard strains (agar dilution); settings: Enterococcus faecium, MD8B, standard strain Streptococcus faecium MD 8b, 37° C., 18 to 20 hours, read-out: Minimum Inhibitory Concentration (MIC)
Klebsiella pneumoniae = test: MIC against clinically isolated aerobic Gram-negative strains; settings: 30 strains
Bacteroides fragilis = test: MIC against clinically isolated anaerobic Gram-negative strains; settings: 34 strains
Klebsiella oxytoca = test: MIC against clinically isolated aerobic Gram-negative strains; settings: 15 strains
Escherichia coli DC 2 = test: MIC against standard strains (agar dilution); settings: Escherichia coli, DC2, read-out: Minimum Inhibitory Concentration (MIC)
Serratia marcescens = test: MIC against clinically isolated aerobic Gram-negative strains; settings: 14 strains
Escherichia coli 1507E = test: MIC against standard strains (agar dilution); settings: standard strain Escherichia coli 1507E, 37° C., 18 to 20 hours, read-out: Minimum Inhibitory Concentration (MIC)
[6] = tested on: Pseudomonas aeruginosa 9027; test: MIC against standard strains (agar dilution); settings: standard strain Pseudomonas aeruginosa 9027, 37° C., 18 to 20 hours, read-out: Minimum Inhibitory Concentration (MIC)
[7] = tested on: Streptococcus pyogenes 77A; test: MIC against standard strains (agar dilution); settings: standard strain Streptococcus pyogenes 77A, 37° C., 18 to 20 hours, read-out: Minimum Inhibitory Concentration (MIC)
Escherichia coli TEM = test: MIC against standard strains (agar dilution); settings: standard strain Escherichia coli TEM, 37° C., 18 to 20 hours, read-out: Minimum Inhibitory Concentration (MIC)
Escherichia coli = test: MIC against clinically isolated aerobic Gram-negative strains; settings: 30 strains
Enterobacter cloacae P99 = test: MIC against standard strains (agar dilution); settings: standard strain Enterobacter cloacae P99, 37° C., 18 to 20 hours, read-out: Minimum Inhibitory Concentration (MIC)
[8] = tested on: Staphylococcus aureus 285; test: MIC against standard strains (agar dilution); settings: standard strain Staphylococcus aureus 285, 37° C., 18 to 20 hours, read-out: Minimum Inhibitory Concentration (MIC)
Escherichia coli DC 0 = test: MIC against standard strains (agar dilution); settings: DC0, standard strain Escherichia coli DC 0, 37° C., 18 to 20 hours, read-out: Minimum Inhibitory Concentration (MIC)

## C[C@@H](O)[C@H]1C(=O)N2C(C(=O)O)=C(SCCN=CN)C[C@H]12 [IPM, Imipenem]
Providentia sp.
  MIC50: 2 µg/mL (≈ 6.68 µM)
  MIC90: 2 µg/mL (≈ 6.68 µM)
  MIC Range: 0.25 to 4 µg/mL
[1]
  MIC: 0.013 µg/mL (≈ 0.0434 µM)
Enterococcus faecalis
  MIC50: 1 µg/mL (≈ 3.34 µM)
  MIC90: 4 µg/mL (≈ 13.4 µM)
  MIC Range: 0.5 to 4 µg/mL
Haemophilus influenzae
  MIC50: 1 µg/mL (≈ 3.34 µM)
  MIC90: 4 µg/mL (≈ 13.4 µM)
  MIC Range: 0.25 to 8 µg/mL
Streptococcus pneumoniae
  MIC50: 0.12 µg/mL (≈ 0.401 µM)
  MIC90: 0.25 µg/mL (≈ 0.835 µM)
  MIC Range: 0.008 to 0.5 µg/mL
[2]
  MIC: 0.195 µg/mL (≈ 0.651 µM)
Streptococcus agalactiae
  MIC50: 0.008 µg/mL (≈ 0.0267 µM)
  MIC90: 0.015 µg/mL (≈ 0.0501 µM)
  MIC Range: 0.008 to 0.015 µg/mL
Moraxella catarrhalis
  MIC50: 0.06 µg/mL (≈ 0.2 µM)
  MIC90: 0.06 µg/mL (≈ 0.2 µM)
  MIC Range: 0.008 to 0.25 µg/mL
[3]
  MIC50: 0.015 µg/mL (≈ 0.0501 µM)
  MIC90: 0.03 µg/mL (≈ 0.1 µM)
  MIC Range: 0.015 to 0.06 µg/mL
Citrobacter freundii
  MIC50: 0.12 µg/mL (≈ 0.401 µM)
  MIC90: 0.5 µg/mL (≈ 1.67 µM)
  MIC Range: 0.06 to 0.5 µg/mL
Salmonella typhimurium
  MIC: 0.781 µg/mL (≈ 2.61 µM)
Clostridium perfringens
  MIC50: 0.06 µg/mL (≈ 0.2 µM)
  MIC90: 0.12 µg/mL (≈ 0.401 µM)
  MIC Range: 0.06 to 0.12 µg/mL
Enterobacter aerogenes
  MIC Range: 0.12 to 0.5 µg/mL
  MIC50: 0.12 µg/mL (≈ 0.401 µM)
  MIC90: 0.5 µg/mL (≈ 1.67 µM)
[4]
  MIC: 0.195 µg/mL (≈ 0.651 µM)
Klebsiella cxytoca 1082E
  MIC: 0.195 µg/mL (≈ 0.651 µM)
Acinetobacter baumannii
  MIC50: 1 µg/mL (≈ 3.34 µM)
  MIC90: 8 µg/mL (≈ 26.7 µM)
  MIC Range: 0.25 to 32 µg/mL
Morganella morganii
  MIC50: 1 µg/mL (≈ 3.34 µM)
  MIC90: 2 µg/mL (≈ 6.68 µM)
  MIC Range: 0.5 to 2 µg/mL
[5]
  MIC: 0.781 µg/mL (≈ 2.61 µM)
Klebsiella pneumoniae
  MIC50: 0.12 µg/mL (≈ 0.401 µM)
  MIC90: 0.5 µg/mL (≈ 1.67 µM)
  MIC Range: 0.06 to 1 µg/mL
Bacteroides fragilis
  MIC50: 0.25 µg/mL (≈ 0.835 µM)
  MIC90: 0.5 µg/mL (≈ 1.67 µM)
  MIC Range: 0.06 to 2 µg/mL
Klebsiella oxytoca
  MIC50: 0.12 µg/mL (≈ 0.401 µM)
  MIC90: 0.5 µg/mL (≈ 1.67 µM)
  MIC Range: 0.06 to 0.5 µg/mL
Escherichia coli DC 2
  MIC: 0.195 µg/mL (≈ 0.651 µM)
Serratia marcescens
  MIC50: 0.25 µg/mL (≈ 0.835 µM)
  MIC90: 2 µg/mL (≈ 6.68 µM)
  MIC Range: 0.12 to 4 µg/mL
Escherichia coli 1507E
  MIC: 0.098 µg/mL (≈ 0.327 µM)
[6]
  MIC: 0.391 µg/mL (≈ 1.31 µM)
[7]
  MIC: < 0.002 µg/mL
Escherichia coli TEM
  MIC: 0.098 µg/mL (≈ 0.327 µM)
Escherichia coli
  MIC50: 0.12 µg/mL (≈ 0.401 µM)
  MIC90: 0.5 µg/mL (≈ 1.67 µM)
  MIC Range: 0.06 to 1 µg/mL
Enterobacter cloacae P99
  MIC: 0.098 µg/mL (≈ 0.327 µM)
[8]
  MIC: 0.013 µg/mL (≈ 0.0434 µM)
Escherichia coli DC 0
  MIC: 0.195 µg/mL (≈ 0.651 µM)

## C[C@@H](O)[C@H]1C(=O)N2C(C(=O)O)=C(S[C@@H]3CN[C@H](C(=O)N(C)C)C3)[C@H](C)[C@H]12 [MPM, meropenem]
Providentia sp.
  MIC50: 0.06 µg/mL (≈ 0.156 µM)
  MIC90: 2 µg/mL (≈ 5.22 µM)
  MIC Range: 0.015 to 2 µg/mL
[1]
  MIC: 0.098 µg/mL (≈ 0.256 µM)
Enterococcus faecalis
  MIC50: 4 µg/mL (≈ 10.4 µM)
  MIC90: 16 µg/mL (≈ 41.7 µM)
  MIC Range: 2 to 16 µg/mL
Haemophilus influenzae
  MIC50: 0.25 µg/mL (≈ 0.652 µM)
  MIC90: 1 µg/mL (≈ 2.61 µM)
  MIC Range: 0.06 to 1 µg/mL
Streptococcus pneumoniae
  MIC50: 0.5 µg/mL (≈ 1.3 µM)
  MIC90: 0.5 µg/mL (≈ 1.3 µM)
  MIC Range: 0.008 to 0.5 µg/mL
[2]
  MIC: 0.049 µg/mL (≈ 0.128 µM)
Streptococcus agalactiae
  MIC50: 0.03 µg/mL (≈ 0.0782 µM)
  MIC90: 0.03 µg/mL (≈ 0.0782 µM)
  MIC Range: 0.03 µg/mL (≈ 0.0782 µM)
Moraxella catarrhalis
  MIC50: 0.008 µg/mL (≈ 0.0209 µM)
  MIC90: 0.008 µg/mL (≈ 0.0209 µM)
  MIC Range: 0.008 to 0.03 µg/mL
[3]
  MIC50: 0.12 µg/mL (≈ 0.313 µM)
  MIC90: 0.12 µg/mL (≈ 0.313 µM)
  MIC Range: 0.06 to 0.25 µg/mL
Citrobacter freundii
  MIC50: 0.015 µg/mL (≈ 0.0391 µM)
  MIC90: 0.03 µg/mL (≈ 0.0782 µM)
  MIC Range: 0.015 to 0.06 µg/mL
Salmonella typhimurium
  MIC: 0.049 µg/mL (≈ 0.128 µM)
Clostridium perfringens
  MIC50: < 0.06 µg/mL
  MIC90: < 0.06 µg/mL
  MIC Range: <0.06 µg/mL
Enterobacter aerogenes
  MIC Range: 0.015 to 0.06 µg/mL
  MIC50: 0.03 µg/mL (≈ 0.0782 µM)
  MIC90: 0.06 µg/mL (≈ 0.156 µM)
[4]
  MIC: 0.098 µg/mL (≈ 0.256 µM)
Klebsiella cxytoca 1082E
  MIC: 0.049 µg/mL (≈ 0.128 µM)
Acinetobacter baumannii
  MIC50: 1 µg/mL (≈ 2.61 µM)
  MIC90: 8 µg/mL (≈ 20.9 µM)
  MIC Range: 0.25 to 64 µg/mL
Morganella morganii
  MIC50: 0.06 µg/mL (≈ 0.156 µM)
  MIC90: 0.12 µg/mL (≈ 0.313 µM)
  MIC Range: 0.03 to 0.12 µg/mL
[5]
  MIC: 12.5 µg/mL (≈ 32.6 µM)
Klebsiella pneumoniae
  MIC50: 0.03 µg/mL (≈ 0.0782 µM)
  MIC90: 0.06 µg/mL (≈ 0.156 µM)
  MIC Range: 0.015 to 0.06 µg/mL
Bacteroides fragilis
  MIC50: 0.12 µg/mL (≈ 0.313 µM)
  MIC90: 0.25 µg/mL (≈ 0.652 µM)
  MIC Range: 0.12 to 4 µg/mL
Klebsiella oxytoca
  MIC50: 0.03 µg/mL (≈ 0.0782 µM)
  MIC90: 0.03 µg/mL (≈ 0.0782 µM)
  MIC Range: 0.015 to 0.06 µg/mL
Escherichia coli DC 2
  MIC: 0.025 µg/mL (≈ 0.0652 µM)
Serratia marcescens
  MIC50: 0.03 µg/mL (≈ 0.0782 µM)
  MIC90: 8 µg/mL (≈ 20.9 µM)
  MIC Range: 0.03 to 8 µg/mL
Escherichia coli 1507E
  MIC: 0.025 µg/mL (≈ 0.0652 µM)
[6]
  MIC: 0.195 µg/mL (≈ 0.509 µM)
[7]
  MIC: 0.007 µg/mL (≈ 0.0183 µM)
Escherichia coli TEM
  MIC: 0.025 µg/mL (≈ 0.0652 µM)
Escherichia coli
  MIC50: 0.015 µg/mL (≈ 0.0391 µM)
  MIC90: 0.03 µg/mL (≈ 0.0782 µM)
  MIC Range: 0.008 to 0.5 µg/mL
Enterobacter cloacae P99
  MIC: 0.049 µg/mL (≈ 0.128 µM)
[8]
  MIC: 0.195 µg/mL (≈ 0.509 µM)
Escherichia coli DC 0
  MIC: 0.025 µg/mL (≈ 0.0652 µM)
